Test [1] relates to pyramidal cells in the basolateral nucleus of amygdala. Description: Patch-clamp in brain slices: depolarization-induced suppression of excitation (DSE). The test is classed as cell-based. Also on record: unit of the concentration uncertain. The conditions noted are these: both groups of mice. The source says:
Patch-clamp recordings from pyramidal cells in the amygdala were taken in accordance with the methods described in Non-Patent Documents 21 and 22. […] The access resistance was frequently checked during recording and any cells that experienced substantial changes (±20%) in its value during recording were excluded from analysis.
Whole-cell patch recordings were taken from pyramidal cells in the basolateral nucleus of amygdala. A bipolar glass electrode filled with an artificial cerebrospinal fluid was placed in the vicinity of the cell to be recorded and an electric stimulus was applied to the slice. First, the evoked excitatory postsynaptic current (eEPSC) was recorded from neurons in the amygdala. Subsequently, the cell being recorded was depolarized for 10 seconds and, immediately thereafter, eEPSC was recorded again. The ratio of the amplitude of eEPSC after depolarization (Ipost) to that of EPSC before depolarization (Ipre) (Ipost/Ipre) was calculated, and was used to assess the degree of DSE. In addition, to confirm the cannabinoid receptor dependency of DSE, recording was conducted with a brain slice immersed in an artificial cerebrospinal fluid containing rimonabant (5 mM). […] Thus, DSE was recorded in a brain slice immersed in an artificial cerebrospinal fluid containing capsaicin (10 mM) and the resulting changes were also studied.
A general note: In patch-clamp work, channel activity is measured electrically.

Test [2] deals with fear memory in mice. Description: Fear conditioning test (freezing time). The conditions noted are these: administered 30 minutes before fear conditioning, 5% krill oil diet 6 weeks. The class given is in vivo. An excerpt: The present inventors evaluated the actions of food ingredients on fear memory by the “fear conditioning experiment” (J Neurosci 27 158-166, 2007) which is extensively used as an evaluation system for fear memory in mice.
A cubic experimental box made of acrylic resin having a bottom of 20 cm×20 cm and a height of 33 cm, with a conductive metallic grid being laid across the bottom, was used as a new environment for conditioning; each mouse was put into the experimental box and conditioned by applying electric shocks (0.8 mA, 2 s) from the bottom grid. Feeling an intense pain from each electric shock, a mouse memorizes that when placed in the new environment, it will suffer pain from electric shocks. The mice were then returned to the breeding cage where they had been kept before the conditioning.
On the next day (the second day of the behavioral experiment), each mouse was put again into the experimental box where it was given electric shocks on the previous day; even in the absence of applied electric shocks, it would be scared to cringe, a characteristic freezing behavior from fear. The degree of fear memory was assessed by the degree of the freezing behavior, namely, the freezing time during a 3-minute exposure to the experimental box. […]

Take `COc1cc(CNC(=O)CCCC/C=C/C(C)C)ccc1O` [capsaicin]: the “effect on DSE” value in test [1] (brain slice in artificial cerebrospinal fluid containing capsaicin (10 (unit uncertain))) is “suppress DSE”.

In the case of `C=CCN1CC[C@]23c4c5ccc(O)c4O[C@H]2C(=O)CC[C@@]3(O)[C@H]1C5` [naloxone], the “freezing time, naloxone-administered krill oil group vs solvent-administered krill group” value in test [2] (Test Example 12, FIG. 13) is “no difference in freezing time”.

Regarding `Cc1c(C(=O)NN2CCCCC2)nn(-c2ccc(Cl)cc2Cl)c1-c1ccc(Cl)cc1` [rimonabant], the “freezing time, rimonabant-administered krill oil group vs solvent-administered control group” value in test [2] (Test Example 11, FIG. 12) is on record as “No significant difference”. Besides, in test [1] (brain slice in artificial cerebrospinal fluid containing rimonabant (5 (unit uncertain))), the “effect on DSE” value is given as “suppressed DSE almost completely”.

For the origin of these results see patent US9107891B2, “Method for alleviating fear memory” (NIPPON SUISAN KAISHA, LTD., priority 2011, dated 2015).
